# In EPA's ToxValDB 9.5 (doi:10.2903/j.efsa.2012.2502):
# Legend:
# Colinus virginianus = conditions: acute, oral, mortality
# Apis mellifera = conditions: acute, mortality
# Oncorhynchus mykiss = conditions: acute; duration: 96 hours; mortality
# Oryctolagus sp. = conditions: developmental; development
# Rattus norvegicus = conditions: for LD50: acute, oral, mortality; for NOAEL: reproduction developmental, histopathology: nonneoplastic
# Tagia sp. = conditions: acute; duration: 14 days; mortality
# Typhlodromus pyri = test: LR50; higher = less toxic; conditions: not reported; mortality
SMILES,LD50 (Colinus virginianus; diet) [mg/kg-day],LD50 (Colinus virginianus) [mg/kg],LD50 (Apis mellifera; dermal) [µg/piece],"LD50 (Apis mellifera; oral, unspecified) [µg/piece]",LC50 (Oncorhynchus mykiss) [µg/mL],NOAEL (Oryctolagus sp.) [mg/kg-day],LD50 (Rattus norvegicus) [mg/kg],NOAEL (Rattus norvegicus) [mg/kg-day],LC50 (Tagia sp.) [mg/kg],LR50 (Typhlodromus pyri) [g/ha]
C=C1C[C@]23C[C@@]1(O)CC[C@H]2[C@@]12C=C[C@H](O)[C@@](C)(C(=O)O1)[C@H]2[C@@H]3C(=O)O [Gibberellic acid],> 1380,> 2250,–,–,–,–,–,–,–,–
C=C1C[C@]23C[C@H]1CC[C@H]2[C@@]12C=C[C@H](O)[C@@](C)(C(=O)O1)[C@H]2[C@@H]3C(=O)O [Gibberellin A7],–,–,> 100,> 87,> 1.3,300,> 5000,300,> 1250,> 40
C=C1C[C@]23C[C@H]1CC[C@H]2[C@@]12CC[C@H](O)[C@@](C)(C(=O)O1)[C@H]2[C@@H]3C(=O)O [Gibberellin A4],–,–,> 100,> 87,> 1.3,300,> 5000,300,> 1250,> 40
